Test results as given in BigSolDB 2.1.

Q: Which solubility (mole fraction) (in ethanol, 273.2 K) does the source give for `O=c1cc(-c2ccc(O)c(O)c2)oc2cc(O)cc(O)c12` here?
A: 0.000755

Q: What about the solubility (mole fraction) (in ethanol, 283.2 K) of the same compound?
A: 0.00117

Q: What about the solubility (mole fraction) (in ethanol, 293.2 K) of the same compound?
A: 0.00174

Q: And the solubility (mole fraction) (in ethanol, 303.2 K)?
A: 0.00205

Q: And the solubility (mole fraction) (in ethanol, 313.2 K)?
A: 0.00271

Q: What about the solubility (mole fraction) (in ethanol, 323.2 K) of the same compound?
A: 0.00318

Q: And the solubility (mole fraction) (in water, 273.2 K)?
A: 2.06e-07

Q: What about the solubility (mole fraction) (in water, 283.2 K) of the same compound?
A: 2.72e-07

Q: What about the solubility (mole fraction) (in water, 293.2 K) of the same compound?
A: 3.49e-07

Q: And the solubility (mole fraction) (in water, 303.2 K)?
A: 4.68e-07

Q: What about the solubility (mole fraction) (in water, 313.2 K) of the same compound?
A: 7.3e-07

Q: And the solubility (mole fraction) (in water, 323.2 K)?
A: 9.48e-07
